Assay results taken from patent US7160888B2, “[1,8]naphthyridin-2-ones and related compounds for the treatment of schizophrenia” (Warner Lambert Company LLC, priority 2003, dated 2007).

Target: D2 receptor (Homo sapiens, UniProt P14416)
Test: [3H]Thymidine uptake assay for D2 intrinsic activity
Type: cell-based
Parameters: Emax: dose or concentration left out as unconfirmed
Conditions: for Emax at 1 µM: test compound 1 μM, 1 μM Quinpirole = 100% intrinsic activity

Chain of D2 receptor (P14416 whole entry): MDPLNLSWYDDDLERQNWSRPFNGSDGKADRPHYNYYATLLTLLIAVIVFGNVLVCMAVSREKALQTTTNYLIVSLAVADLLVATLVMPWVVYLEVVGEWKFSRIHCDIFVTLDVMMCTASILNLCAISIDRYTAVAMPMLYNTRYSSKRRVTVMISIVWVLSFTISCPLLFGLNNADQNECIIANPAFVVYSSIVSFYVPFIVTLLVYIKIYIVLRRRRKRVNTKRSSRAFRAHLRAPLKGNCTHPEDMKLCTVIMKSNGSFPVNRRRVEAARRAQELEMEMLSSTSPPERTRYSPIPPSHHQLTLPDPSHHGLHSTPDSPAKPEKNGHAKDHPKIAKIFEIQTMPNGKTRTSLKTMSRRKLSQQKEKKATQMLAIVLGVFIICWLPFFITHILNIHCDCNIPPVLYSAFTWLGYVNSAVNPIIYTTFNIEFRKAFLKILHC

SMILES	Emax at 1 µM (Table 1) [%]	further results
CC(F)(F)c1ccccc1N1CCN(CCCCOc2ccc3c(n2)NC(=O)CC3)CC1 [Example A42, 7-(4-{4-[2-(1,1-Difluoro-ethyl)-phenyl]-piperazin-1-yl}-butoxy)-3,4-dihydro-1H-[1,8]naphthyridin-2-one]	28	
O=C1CCc2cnc(OCCCCN3CCN(c4cccc5c4OC(F)(F)O5)CC3)cc2N1 [Example H4′, 7-{4-[4-(2,2-Difluoro-benzo[1,3]dioxol-4-yl)-piperazin-1-yl]-butoxy}-3,4-dihydro-1H-[1,6]naphthyridin-2-one]		Emax at 1 µM (Table 2): 21%
CC(=O)c1ccc2c(N3CCN(CCCCOc4ccc5c(n4)NC(=O)CC5)CC3)cccc2c1 [Example A79, 7-{4-[4-(6-Acetyl-napthalen-1-yl)-piperazin-1-yl]-butoxy}-3,4-dihydro-1H-[1,8]naphthyridin-2-one]	24	
CC(C)COc1ccccc1N1CCN(CCCCOc2ccc3c(n2)NC(=O)CC3(C)C)CC1 [Example D24, 7-{4-[4-(2-Isobutoxy-phenyl)-piperazin-1-yl]-butoxy}-4,4-dimethyl-3,4-dihydro-1H-[1,8]naphthyridin-2-one]	32	
CC1C=Cc2cccc(N3CCN(CCCCOc4ccc5c(n4)NC(=O)CC5)CC3)c2O1 (stereo not drawn) [Example A9′, 7-{4-[4-(2-Methyl-2H-chromen-8-yl)-piperazin-1-yl]-butoxy}-3,4-dihydro-1H-[1,8]naphthyridin-2-one]		Emax at 1 µM (Table 2): 30%
CC1(C)CC(=O)Nc2nc(OCCCCN3CCN(c4cccc5ccccc45)CC3)ccc21 [Example D16, 4,4-Dimethyl-7-[4-(4-naphthalen-1-yl-piperazin-1-yl)-butoxy]-3,4-dihydro-1H-[1,8]naphthyridin-2-one]	31	
O=c1ccc2cnc(OCCCCN3CCN(c4cccc5c4OCCC5)CC3)cc2[nH]1 [Example H8′, 7-[4-(4-Chroman-8-yl-piperazin-1-yl)-butoxy]-1H-[1,6]naphthyridin-2-one]		Emax at 1 µM (Table 2): 32%
O=c1ccc2cnc(OCCCCN3CCN(c4cccc5c4CCC5)CC3)cc2[nH]1 [Example I15, 7-[4-(4-Indan-4-yl-piperazin-1-yl)-butoxy]-1H-[1,6]naphthyridin-2-one]	20	
O=C1CCc2ccc(OCCCCN3CCN(c4cccc(C5CC5)n4)CC3)nc2N1 [Example A46, 7-{4-[4-(6-Cyclopropyl-pyridin-2-yl)-piperazin-1-yl]-butoxy}-3,4-dihydro-1H-[1,8]naphthyridin-2-one]	41	
CC(=O)c1cccc2c(N3CCN(CCCCOc4ccc5c(n4)NC(=O)CC5)CC3)cccc12 [Example A80, 7-{4-[4-(5-Acetyl-naphthalen-1-yl)-piperazin-1-yl]-butoxy}-3,4-dihydro-1H-[1,8]naphthyridin-2-one]	30	
O=C1CCc2cnc(OCCCCN3CCN(c4cccc5ccc(F)cc45)CC3)cc2N1 [Example I6, 7-{4-[4-(7-Fluoro-naphthalen-1-yl)-piperazin-1-yl]-butoxy}-3,4-dihydro-1H-[1,6]naphthyridin-2-one]		Emax (read-out: D2 Intrinsic Activity (%)): 24%
CC(=O)c1ccccc1N1CCN(CCCCOc2ccc3c(n2)NC(=O)CC3)CC1 [Example A34, 7-{4-[4-(2-Acetyl-phenyl)-piperazin-1-yl]-butoxy}-3,4-dihydro-1H-[1,8]naphthyridin-2-one]	8	
O=C1COc2ccc(CCCCCN3CCN(c4cccc(Cl)c4Cl)CC3)nc2N1 [Example G1, 6-{5-[4-(2,3-Dichloro-phenyl)-piperazin-1-yl]-pentyl}-4H-pyrido[3,2-b][1,4]oxazin-3-one]	27	
CC(C)Oc1ccccc1N1CCN(CCCCOc2ccc3c(n2)NC(=O)CC3)CC1 [Example A26, 7-{4-[4-(2-Isopropoxy-phenyl)-piperazin-1-yl]-butoxy}-3,4-dihydro-1H-[1,8]naphthyridin-2-one]	33	
CCc1cccc(N2CCN(CCCCOc3ccc4c(n3)NC(=O)CC4)CC2)n1 [Example A45, 7-{4-[4-(6-Ethyl-pyridin-2-yl)-piperazin-1-yl]-butoxy}-3,4-dihydro-1H-[1,8]naphthyridin-2-one]	34	
CC(C)COc1ccccc1N1CCN(CCCCOc2ccc3ccc(=O)[nH]c3n2)CC1 [Example B11, 7-{4-[4-(2-Isobutoxy-phenyl)-piperazin-1-yl]-butoxy}-1H-[1,8]naphthyridin-2-one]	31	
O=c1ccc2ccc(OCCCCN3CCN(c4cccc5c4CC(F)(F)C5)CC3)nc2[nH]1 [Example B46, 7-{4-[4-(2,2-Difluoro-indan-4-yl)-piperazin-1-yl]-butoxy}-1H-[1,8]naphthyridin-2-one]	29	
Cc1cc2ccc(OCCCCN3CCN(c4cccc(Cl)c4Cl)CC3)nc2[nH]c1=O [Example D4, 7-{4-[4-(2,3-Dichloro-phenyl)-piperazin-1-yl]-butoxy}-3-methyl-1H-[1,8]naphthyridin-2-one]	16	
O=c1ccc2ccc(OCCCCN3CCN(c4ccccc4-c4ccccc4)CC3)nc2[nH]1 [Example B26, 7-[4-(4-Biphenyl-2-yl-piperazin-1-yl)-butoxy]-1H-[1,8]naphthyridin-2-one]	23	
O=c1ccc2ccc(OCCCCN3CCN(c4cccc5cc(Cl)ccc45)CC3)nc2[nH]1 [Example B57, 7-{4-[4-(6-Chloro-naphthalen-1-yl)-piperazin-1-yl]-butoxy}-1H-[1,8]naphthyridin-2-one]	21	
O=C1CCc2ccc(OCCCCN3CCN(c4cccc5ccc(Cl)cc45)CC3)nc2N1 [Example A74, 7-{4-[4-(7-Chloro-naphthalen-1-yl)-piperazin-1-yl]-butoxy}-3,4-dihydro-1H-[1,8]naphthyridin-2-one]	37	
O=C1CCc2ccc(OCCCCN3CCN(c4cccc5cc[nH]c45)CC3)nc2N1 [Example A24′, 7-{4-[4-(1H-Indol-7-yl)-piperazin-1-yl]-butoxy}-3,4-dihydro-1H-[1,8]naphthyridin-2-one]		Emax at 1 µM (Table 2): 6%
O=c1ccc2ccc(OCCCCN3CCN(c4cccc5ncc(F)cc45)CC3)nc2[nH]1 [Example B34′, 7-{4-[4-(3-Fluoro-quinolin-5-yl)-piperazin-1-yl]-butoxy}-1H-[1,8]naphthyridin-2-one]		Emax at 1 µM (Table 2): 35%
O=C1CCc2cc(F)c(OCCCCN3CCN(c4cccc5ccccc45)CC3)nc2N1 [Example E4, 6-Fluoro-7-[4-(4-naphthalen-1-yl-piperazin-1-yl)-butoxy]-3,4-dihydro-1H-[1,8]naphthyridin-2-one]	38	
O=C1CCc2ccc(OCCCCN3CCN(c4cccc5c4CCO5)CC3)nc2N1 [Example A11′, 7-{4-[4-(2,3-Dihydro-benzofuran-4-yl)-piperazin-1-yl]-butoxy}-3,4-dihydro-1H-[1,8]naphthyridin-2-one]		Emax at 1 µM (Table 2): 17%
CCc1c(F)cccc1N1CCN(CCCCOc2ccc3c(n2)NC(=O)CC3)CC1 [Example A31, 7-{4-[4-(2-Ethyl-3-fluoro-phenyl)-piperazin-1-yl]-butoxy}-3,4-dihydro-1H-[1,8]naphthyridin-2-one]	26	
Cc1cc(OCCCCN2CCN(c3cccc4c3CCCC4)CC2)nc2c1CCC(=O)N2 [Example E11, 5-Methyl-7-{4-[4-(5,6,7,8-tetrahydro-naphthalen-1-yl)-piperazin-1-yl]-butoxy}-3,4-dihydro-1H-[1,8]naphthyridin-2-one]	19	
